In ChEMBL document CHEMBL5543072, “Discovery of a novel lead characterized by a stilbene-extended scaffold against sepsis as soluble epoxide hydrolase inhibitors” (Eur J Med Chem, 2024):
pIC50: −log10 of the molar value. Active and inactive are the calls of the source. The rule behind the calls is not given here.

What was measured:
[1] = Cmax in C57BL/6J mouse liver at 5 mg/kg, ip measured after 24 hrs by LC-MS/MS analysis; format: ADME, organism-based
[2] = molecular target: T1, Bifunctional epoxide hydrolase 2 (Homo sapiens, UniProt P34913)
T1 sequence (P34913 whole entry): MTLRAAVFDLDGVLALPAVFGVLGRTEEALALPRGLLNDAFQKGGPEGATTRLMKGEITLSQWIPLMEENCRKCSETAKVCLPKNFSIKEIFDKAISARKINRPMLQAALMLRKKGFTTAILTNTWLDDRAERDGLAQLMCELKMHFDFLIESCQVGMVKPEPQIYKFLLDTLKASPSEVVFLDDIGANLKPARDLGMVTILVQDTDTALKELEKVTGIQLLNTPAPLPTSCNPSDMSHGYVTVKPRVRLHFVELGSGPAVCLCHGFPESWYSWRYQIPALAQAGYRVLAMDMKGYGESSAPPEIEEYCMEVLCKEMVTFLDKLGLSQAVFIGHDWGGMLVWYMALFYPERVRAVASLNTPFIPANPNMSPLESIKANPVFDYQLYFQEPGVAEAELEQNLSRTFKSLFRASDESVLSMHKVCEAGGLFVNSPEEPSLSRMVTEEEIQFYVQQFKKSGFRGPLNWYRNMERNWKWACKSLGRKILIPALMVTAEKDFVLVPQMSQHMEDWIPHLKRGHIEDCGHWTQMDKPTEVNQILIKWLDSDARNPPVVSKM

Mus musculus [3] = experiment: Protection against LPS-induced sepsis in C57BL/6J mouse model assessed as survival rate at 30 mg/kg, iv measured after 24 hrs relative to control; format: functional
Mus musculus [4] = experiment: Protection against LPS-induced sepsis in C57BL/6J mouse model at 0.05 mg/kg, iv measured after 72 hrs; format: functional, organism-based
[5] = AUC (0 to 24 hrs)in C57BL/6J mouse blood at 5 mg/kg, ip measured after 24 hrs by LC-MS/MS analysis; format: ADME, organism-based
Mus musculus [6] = experiment: Protection against LPS-induced sepsis in C57BL/6J mouse model assessed as survival rate at 30 mg/kg, iv measured after 72 hrs relative to control; format: functional
Mus musculus [7] = experiment: Protection against LPS-induced sepsis in C57BL/6J mouse model assessed as survival rate at 0.5 mg/kg, iv measured after 72 hrs relative to control; format: functional
Mus musculus [8] = experiment: Protection against LPS-induced sepsis in C57BL/6J mouse model assessed as survival rate at 5 mg/kg, iv measured after 48 hrs relative to control; format: functional

`O=C(Cc1ccccn1)Nc1cccc(/C=C/c2ccc(NC(=O)NCC3CCOCC3)cc2)c1` showed a Cmax [1] of 2510 ng/g, a pIC50 [2] of 8.82 and a survival at 30 mg/kg (Mus musculus [3]) of 60%. The Activity (Mus musculus [4]) was “inactive”, the AUC(0-t) at 24 h [5] was 122 ng·h/mL and the survival at 30 mg/kg (Mus musculus [6]) was 10%. For the same molecule, the survival at 0.5 mg/kg (Mus musculus [7]) was 40% and the survival at 5 mg/kg (Mus musculus [8]) was 40%.
